Each compound was assayed against T1, fructose-1,6-bisphosphatase (FBPase) (Homo sapiens, UniProt P09467) (assay: FBPase inhibition assay (Taketa and Pogell): conversion of fructose-1,6-bisphosphate to fructose-6-phosphate, NADPH formation at 340 nm via coupled reactions). Conditions: concentration of inhibitor giving 50% inhibition of FBPase activity; read-out: IC50.
T1 sequence (P09467 1-338): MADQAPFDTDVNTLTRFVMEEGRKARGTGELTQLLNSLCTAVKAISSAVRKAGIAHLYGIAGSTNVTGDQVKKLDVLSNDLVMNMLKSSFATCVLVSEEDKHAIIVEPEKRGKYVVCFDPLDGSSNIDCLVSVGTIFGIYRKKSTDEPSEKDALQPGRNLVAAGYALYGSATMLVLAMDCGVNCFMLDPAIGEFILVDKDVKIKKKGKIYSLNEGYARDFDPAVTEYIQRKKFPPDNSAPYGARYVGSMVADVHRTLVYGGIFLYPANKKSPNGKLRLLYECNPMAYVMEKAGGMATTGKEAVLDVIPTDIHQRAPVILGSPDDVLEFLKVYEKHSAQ
Type: biochemical
Experimental: The above compounds are assayed utilizing the procedure described by Taketa and Pogell (J. Biol. Chem. 240:651 (1965)), wherein the conversion of fructose-1,6-bisphosphate to fructose-6-phosphate is measured by monitoring the conversion of NADP to NADPH through two coupled reactions mediated by phosphoglucose isomerase and glucose-6-phosphate dehydrogenase. The increase in NADPH concentration during the course of the reactions was determined by measuring the increase in absorption at 340 nm. The controls used in the assay were adenosine monophosphate CAMP, 1(50 1.4±0.5 μM) and fructose 2.6-bisphosphate (1(50 2.9±0.9 μM). The results obtained of the above compounds are as follows (Table 2):
In Table 2, IC50 represents the concentration of inhibitor, which would result in 50% inhibition of FBPase activity. The Roman numbers designate the compounds' numbers as depicted in Formula A for which inhibition of FBPase activity has been measured.

Row | Structure (SMILES) | IC50 [µM]
1 | O=C(O)c1ccc(CNC(=O)C(c2ccc3c(c2)-c2ccccc2C3)N2C(=O)C3Cc4ccccc4CN3C(=O)C2Cc2ccccc2)cc1 (centres unmarked) [Compound XV, 4-{[2-(3-Benzyl-1,4-dioxo-1,3,4,6,11,11a-hexahydro-pyrazino[1,2-b]isoquinolin-2-yl)-2-(9H-fluoren-3-yl)-acetylamino]-methyl}-benzoic acid] | 27
2 | CC(C)CC(C(=O)NCCc1ccc(O)cc1)N1C(=O)[C@@H]2Cc3ccccc3CN2C(=O)[C@@H]1Cc1ccc(O)cc1 (some centres unmarked) [Compound XII, 2-[3-(4-Hydroxy-benzyl)-1,4-dioxo-1,3,4,6,11,11a-hexahydro-pyrazino[1,2-b]isoquinolin-2-yl]-4-methyl-pentanoic acid [2-(4-hydroxy-phenyl)-ethyl]-amide] | 54
3 | O=C(O)CCCCCNC(=O)C(c1ccc(Oc2ccccc2)cc1)N1C(=O)[C@H](Cc2ccccc2)NC(=O)[C@@H]1CC1CCCCC1 (some centres unmarked) [Compound XVI, 6-[2-(3-Benzyl-6-cyclohexylmethyl-2,5-dioxo-piperazin-1-yl)-2-(4-phenoxy-phenyl)-acetylamino]-hexanoic acid] | 34
4 | CCCC(C(=O)NCCc1ccc(O)cc1)N1C(=O)[C@@H]2Cc3ccccc3CN2C(=O)[C@@H]1Cc1ccccc1 (some centres unmarked) [Compound IX, 2-(3-Benzyl-1,4-dioxo-1,3,4,6,11,11a-hexahydro-pyrazino[1,2-b]isoquinolin-2-yl)-pentanoic acid [2-(4-hydroxy-phenyl)-ethyl]-amide] | 34
5 | CCCCCC(C(=O)NCCc1ccc(O)cc1)N1C(=O)[C@@H]2Cc3ccccc3CN2C(=O)[C@@H]1Cc1ccc(O)cc1 (some centres unmarked) [Compound X, 2-[3-(4-Hydroxy-benzyl)-1,4-dioxo-1,3,4,6,11,11a-hexahydro-pyrazino[1,2-b]isoquinolin-2-yl]-heptanoic acid [2-(4-hydroxy-phenyl)-ethyl]-amide] | 40
6 | O=C(O)CCCCCNC(=O)C(c1ccc(Oc2ccccc2)cc1)N1C(=O)C(Cc2ccc([N+](=O)[O-])cc2)NC(=O)C1Cc1ccccc1 (centres unmarked) [Compound XVIII, 6-[2-[2-Benzyl-5-(4-nitro-benzyl)-3,6-dioxo-piperazin-1-yl]-2-(4-phenoxy-phenyl)-acetylamino]-hexanoic acid] | 95

Other lines, results leading:

Row | IC50 [µM] | Structure (SMILES)
7 | 24 | O=C(O)c1ccc(CNC(=O)C(c2ccc(Oc3ccccc3)cc2)N2C(=O)[C@@H]3Cc4ccccc4CN3C(=O)[C@@H]2CC2CCCCC2)cc1 (some centres unmarked) [Compound XIV, 4-{[2-(3-Cyclohexylmethyl-1,4-dioxo-1,3,4,6,11,11a-hexahydro-pyrazino [1,2-b]isoquinolin-2-yl)-2-(4-phenoxy-phenyl)-acetylamino]-methyl}-benzoicacid]
8 | 15 | N#Cc1ccc(C(C(=O)NCCc2ccc(O)cc2)N2C(=O)[C@@H]3Cc4ccccc4CN3C(=O)[C@@H]2Cc2ccccc2)cc1 (some centres unmarked) [Compound IV, 2-(3-Benzyl-1,4-dioxo-1,3,4,6,11,11a-hexahydro-pyrazino[1,2-b]isoquinolin-2-yl)-2-(4-cyano-phenyl)-N-[2-(4-hydroxy-phenyl)-ethyl]-acetamide]
9 | 8 | N#Cc1ccc(C(C(=O)NCCc2cccc(O)c2)N2C(=O)[C@@H]3Cc4ccccc4CN3C(=O)[C@@H]2CC2CCCCC2)cc1 (some centres unmarked) [Compound III, 2-(4-Cyano-phenyl)-2-(3-cyclohexylmethyl-1,4-dioxo-1,3,4,6,11,11a-hexahydro-pyrazino[1,2-b]isoquinolin-2-yl)-N-[2-(3-hydroxy-phenyl)-ethyl]-acetamide]
10 | 30 | CC(C)C[C@H]1C(=O)N2Cc3ccccc3C[C@H]2C(=O)N1C(C(=O)NCCc1ccc(O)cc1)c1ccc(C#N)cc1 (some centres unmarked) [Compound VII, 2-(4-Cyano-phenyl)-N-[2-(4-hydroxy-phenyl)-ethyl]-2-(3-isobutyl-1,4-dioxo-1,3,4,6,11,11a-hexahydro-pyrazino[1,2-b]isoquinolin-2-yl)-acetamide]
11 | 2.1 | N#Cc1ccc(C(C(=O)NCCc2ccc(O)cc2)N2C(=O)[C@@H]3Cc4ccccc4CN3C(=O)[C@@H]2CC2CCCCC2)cc1 (some centres unmarked) [Compound II, 2-(4-Cyano-phenyl)-2-(3-cyclohexylmethyl-1,4-dioxo-1,3,4,6,11,11a-hexahydro-pyrazino[1,2-b]isoquinolin-2-yl)-N-[2-(4-hydroxy-phenyl)-ethyl]-acetamide]
12 | 32 | NC(=O)c1ccc(C(C(=O)NCCc2ccc(F)cc2)N2C(=O)[C@@H]3Cc4ccccc4CN3C(=O)[C@@H]2CC2CCCCC2)cc1 (some centres unmarked) [Compound VIII, 4-{(3-Cyclohexylmethyl-1,4-dioxo-1,3,4,6,11,11a-hexahydro-pyrazino[1,2-b]isoquinolin-2-yl)-[2-(4-fluoro-phenyl)-ethylcarbamoyl]-methyl}-benzamide]
13 | 0.37 | N#Cc1ccc(C(C(=O)NCCc2ccc(O)cc2)N2C(=O)C3Cc4ccc(O)cc4CN3C(=O)[C@@H]2CC2CCCCC2)cc1 (some centres unmarked) [Compound I, 2-(4-Cyano-phenyl)-2-(3-cyclohexylmethyl-8-hydroxy-1,4-dioxo-1,3,4,6,11,11a-hexahydro-pyrazino[1,2-b]isoquinolin-2-yl)-N-[2-(4-hydroxy-phenyl)-ethyl]-acetamide]
14 | 37 | Cc1ccc(C(C(=O)NCCc2ccc(O)cc2)N2C(=O)[C@@H]3Cc4ccccc4CN3C(=O)[C@@H]2C)cc1 (some centres unmarked) [Compound XVII, N-[2-(4-Hydroxy-phenyl)-ethyl]-2-(3-methyl-1,4-dioxo-1,3,4,6,11,11a-hexahydro-pyrazino[1,2-b]isoquinolin-2-yl)-2-p-tolyl-acetamide]
15 | 21 | CC(C)C[C@H]1C(=O)N2Cc3ccccc3C[C@H]2C(=O)N1C(C(=O)NCCc1ccc(O)cc1)c1ccc([N+](=O)[O-])cc1 (some centres unmarked) [Compound V, N-[2-(4-Hydroxy-phenyl)-ethyl]-2-(3-isobutyl-1,4-dioxo-1,3,4,6,11,11a-hexahydro-pyrazino[1,2-b]isoquinolin-2-yl)-2-(4-nitro-phenyl)-acetamide]
16 | 24 | O=C(NCCc1ccc(O)cc1)C(c1ccc([N+](=O)[O-])cc1)N1C(=O)[C@H](Cc2ccccc2)NC(=O)[C@@H]1CC1CCCCC1 (some centres unmarked) [Compound VI, 2-(3-Benzyl-6-cyclohexylmethyl-2,5-dioxo-piperazin-1-yl)-N-[2-(4-hydroxy-phenyl)-ethyl]-2-(4-nitro-phenyl)-acetamide]
17 | 57 | N#Cc1ccc(C(C(=O)NCc2ccc(C(=O)N3CCOCC3)cc2)N2C(=O)[C@@H]3Cc4ccccc4CN3C(=O)[C@@H]2CC2CCCCC2)cc1 (some centres unmarked) [Compound XIII, 2-(4-Cyano-phenyl)-2-(3-cyclohexylmethyl-1,4-dioxo-1,3,4,6,11,11a-hexahydro-pyrazino[1,2-b]isoquinolin-2-yl)-N-[4-(morpholine-4-carbonyl)-benzyl]-acetamide]
18 | 45 | CCCC(C(=O)NCCc1ccc(O)cc1)N1C(=O)[C@@H]2Cc3ccccc3CN2C(=O)[C@@H]1Cc1ccc(O)cc1 (some centres unmarked) [Compound XI, 2-[3-(4-Hydroxy-benzyl)-1,4-dioxo-1,3,4,6,11,11a-hexahydro-pyrazino[1,2-b]isoquinolin-2-yl]-pentanoic acid [2-(4-hydroxy-phenyl)-ethyl]-amide]

Same assay, conditions: controls used in the assay; read-out: 1(50 [IC50] of the assay controls

Row | IC50 [µM] | Structure (SMILES)
19 | 1.4 ± 0.5 | Nc1ncnc2c1ncn2[C@@H]1O[C@H](COP(=O)(O)O)[C@@H](O)[C@H]1O [adenosine monophosphate, reference compound]
20 | 2.9 ± 0.9 | O=P(O)(O)OC[C@H]1O[C@@](CO)(OP(=O)(O)O)[C@@H](O)[C@@H]1O [fructose 2.6-bisphosphate, reference compound]

— US6107274A, “Piperazines as inhibitors of fructose-1,6-bisphosphatase (FBPase)” (Ontogen Corporation, priority 1999, dated 2000)
